Laboratory results as given in publication PMC5218480 (PLoS ONE, 2017).

Tested on: MV-4-11 cells
Assay: Gene expression microarray analysis (Affymetrix PrimeView) and GSEA
Format: cell-based, human
Set-up: RFU PODN (11730768_x_at) / Fold change /veh PODN (11730768_x_at) / RFU LINC00158 (11744669_a_at) / Fold change /veh LINC00158 (11744669_a_at) / RFU DUSP10 (11751237_a_at) / Fold change /veh DUSP10 (11751237_a_at) / RFU ID3 (11757404_x_at) / Fold change /veh ID3 (11757404_x_at) / RFU PLEKHG5 (11737974_s_at) / Fold change /veh PLEKHG5 (11737974_s_at) / RFU LRRC4B (11730491_at) / Fold change /veh LRRC4B (11730491_at) / RFU GIMAP4 (11747438_a_at) / Fold change /veh GIMAP4 (11747438_a_at) / RFU KRT8 (11758183_x_at) / Fold change /veh KRT8 (11758183_x_at) / RFU CNN1 (11734310_a_at) / Fold change /veh CNN1 (11734310_a_at) / RFU VPS37D (11726825_at) / Fold change /veh VPS37D (11726825_at) / RFU C10orf10 (11716522_x_at) / Fold change /veh C10orf10 (11716522_x_at) / RFU KIR2DL2 /// KIR2DL4 /// KIR2DL5A /// KIR2DL5B /// KIR2DS1 /// KIR2DS2 /// KIR2DS3 /// KIR2DS4 /// KIR3DL3 /// KIR3DL3 /// KIR3DS1 (11738374_at) / Fold change /veh KIR2DL2 /// KIR2DL4 /// KIR2DL5A /// KIR2DL5B /// KIR2DS1 /// KIR2DS2 /// KIR2DS3 /// KIR2DS4 /// KIR3DL3 /// KIR3DL3 /// KIR3DS1 (11738374_at) / RFU C1QL1 (11718748_at) / Fold change /veh C1QL1 (11718748_at) / RFU TMPRSS4 (11747572_a_at) / Fold change /veh TMPRSS4 (11747572_a_at) / RFU HAMP (11756126_x_at) / Fold change /veh HAMP (11756126_x_at) / RFU RNFT2 (11725882_a_at) / Fold change /veh RNFT2 (11725882_a_at) / RFU NR4A2 (11747474_a_at) / Fold change /veh NR4A2 (11747474_a_at) / RFU ABCC12 (11746883_a_at) / Fold change /veh ABCC12 (11746883_a_at) / RFU TMEM136 (11760407_x_at) / Fold change /veh TMEM136 (11760407_x_at) / RFU CLDN22 /// WWC2 (11732394_at) / Fold change /veh CLDN22 /// WWC2 (11732394_at) / RFU HLA-DPB1 (11760878_x_at) / Fold change /veh HLA-DPB1 (11760878_x_at) / RFU SPINT1 (11716480_a_at) / Fold change /veh SPINT1 (11716480_a_at) / RFU GAP43 (11754022_s_at) / Fold change /veh GAP43 (11754022_s_at) / RFU A4GNT (11735810_at) / Fold change /veh A4GNT (11735810_at) / RFU PRB3 (11715151_x_at) / Fold change /veh PRB3 (11715151_x_at) / RFU TUBB4B (11761932_at) / Fold change /veh TUBB4B (11761932_at) / RFU CAPN14 (11732068_a_at) / Fold change /veh CAPN14 (11732068_a_at) / RFU TMCC2 (11721928_a_at) / Fold change /veh TMCC2 (11721928_a_at) / RFU IRGQ (11745062_a_at) / Fold change /veh IRGQ (11745062_a_at) / RFU FAM174B (11720279_a_at) / Fold change /veh FAM174B (11720279_a_at) / RFU TMPRSS4 (11748680_a_at) / Fold change /veh TMPRSS4 (11748680_a_at) / RFU FAM212B (11763350_a_at) / Fold change /veh FAM212B (11763350_a_at) / RFU PLEKHG5 (11743358_a_at) / Fold change /veh PLEKHG5 (11743358_a_at) / RFU ZSCAN30 (11745921_a_at) / Fold change /veh ZSCAN30 (11745921_a_at) / RFU CMKLR1 (11741424_a_at) / Fold change /veh CMKLR1 (11741424_a_at) / RFU LOC101060620 /// MAPK8IP1 (11723275_at) / Fold change /veh LOC101060620 /// MAPK8IP1 (11723275_at) / RFU SPTSSB (11747773_x_at) / Fold change /veh SPTSSB (11747773_x_at) / RFU PRSS12 (11739890_at) / Fold change /veh PRSS12 (11739890_at) / RFU BIN1 (11741810_x_at) / Fold change /veh BIN1 (11741810_x_at) / RFU WNT11 (11732464_a_at) / Fold change /veh WNT11 (11732464_a_at) / RFU C10orf10 (11716521_a_at) / Fold change /veh C10orf10 (11716521_a_at) / RFU C5orf56 (11738089_at) / Fold change /veh C5orf56 (11738089_at) / RFU CYB561 (11721691_x_at) / Fold change /veh CYB561 (11721691_x_at) / RFU ANKRD19P (11752326_a_at) / Fold change /veh ANKRD19P (11752326_a_at) / RFU OR2T12 /// OR2T33 /// OR2T8 (11738714_s_at) / Fold change /veh OR2T12 /// OR2T33 /// OR2T8 (11738714_s_at) / RFU VCAN (11748164_a_at) / Fold change /veh VCAN (11748164_a_at) / RFU JSRP1 (11732532_at) / Fold change /veh JSRP1 (11732532_at) / RFU KRTAP10-11 (11738290_x_at) / Fold change /veh KRTAP10-11 (11738290_x_at) / RFU MYO3A (11730013_a_at) / Fold change /veh MYO3A (11730013_a_at) / RFU EBF3 (11725865_a_at) / Fold change /veh EBF3 (11725865_a_at) / RFU CAMK2N1 (11719241_x_at) / Fold change /veh CAMK2N1 (11719241_x_at) / RFU C5orf56 (11738088_a_at) / Fold change /veh C5orf56 (11738088_a_at) / RFU OLFML3 (11715873_a_at) / Fold change /veh OLFML3 (11715873_a_at) / RFU LOC100653217 /// NTM (11731650_a_at) / Fold change /veh LOC100653217 /// NTM (11731650_a_at) / RFU MAPK11 (11762145_a_at) / Fold change /veh MAPK11 (11762145_a_at) / RFU FIZ1 (11724087_x_at) / Fold change /veh FIZ1 (11724087_x_at) / RFU OASL (11726364_x_at) / Fold change /veh OASL (11726364_x_at) / RFU SOX15 (11748057_x_at) / Fold change /veh SOX15 (11748057_x_at) / RFU CD79A (11719716_a_at) / Fold change /veh CD79A (11719716_a_at) / RFU HIST1H1D (11736915_at) / Fold change /veh HIST1H1D (11736915_at) / RFU CASKIN2 (11723855_a_at) / Fold change /veh CASKIN2 (11723855_a_at) / RFU LOC730098 (11760151_x_at) / Fold change /veh LOC730098 (11760151_x_at) / RFU OR4N2 (11742367_at) / Fold change /veh OR4N2 (11742367_at) / RFU PRRT2 (11749266_a_at) / Fold change /veh PRRT2 (11749266_a_at) / RFU SNX32 (11753110_a_at) / Fold change /veh SNX32 (11753110_a_at) / RFU CDHR5 (11726645_a_at) / Fold change /veh CDHR5 (11726645_a_at) / RFU RCAN1 (11760418_a_at) / Fold change /veh RCAN1 (11760418_a_at) / RFU FAM167A (11723789_a_at) / Fold change /veh FAM167A (11723789_a_at) / RFU FAM26E (11764081_at) / Fold change /veh FAM26E (11764081_at) / RFU ISYNA1 (11749810_s_at) / Fold change /veh ISYNA1 (11749810_s_at) / RFU ACY1 (11761880_at) / Fold change /veh ACY1 (11761880_at) / RFU 11764098_at / Fold change /veh 11764098_at / RFU SAMD14 (11745864_x_at) / Fold change /veh SAMD14 (11745864_x_at) / RFU NPB (11741838_a_at) / Fold change /veh NPB (11741838_a_at) / RFU TMPRSS6 (11731388_a_at) / Fold change /veh TMPRSS6 (11731388_a_at) / RFU KRTAP10-2 (11738614_at) / Fold change /veh KRTAP10-2 (11738614_at) / RFU ARHGAP8 /// PRR5-ARHGAP8 (11727945_x_at) / Fold change /veh ARHGAP8 /// PRR5-ARHGAP8 (11727945_x_at) / RFU KRTAP5-7 /// NADSYN1 (11734609_at) / Fold change /veh KRTAP5-7 /// NADSYN1 (11734609_at) / RFU RASL12 (11751679_a_at) / Fold change /veh RASL12 (11751679_a_at) / RFU CDKN2B (11736163_a_at) / Fold change /veh CDKN2B (11736163_a_at) / RFU PRF1 (11729649_at) / Fold change /veh PRF1 (11729649_at) / RFU, ZNF638 /// ZNF638-IT1 / Fold change vs veh, ZNF638 /// ZNF638-IT1 / RFU, PANK3 / Fold change vs veh, PANK3 / RFU, SH3YL1 / Fold change vs veh, SH3YL1 / RFU, ZEB2 / Fold change vs veh, ZEB2 / RFU, NRIP1 / Fold change vs veh, NRIP1 / RFU, PTTG1IP / Fold change vs veh, PTTG1IP / RFU, CAPN2 / Fold change vs veh, CAPN2 / RFU, MED14 / Fold change vs veh, MED14 / RFU, SNORA58 / Fold change vs veh, SNORA58 / RFU, C1orf63 / Fold change vs veh, C1orf63 / RFU, LRRFIP1 / Fold change vs veh, LRRFIP1 / RFU, NDUFAF7 / Fold change vs veh, NDUFAF7 / RFU, SLC12A2 / Fold change vs veh, SLC12A2 / RFU, IBTK / Fold change vs veh, IBTK / RFU, ESF1 / Fold change vs veh, ESF1 / Fold change vs veh, TMEM50B / RFU, TAOK1 / Fold change vs veh, TAOK1 / RFU, ACBD3 / Fold change vs veh, ACBD3 / RFU, TMA16 / Fold change vs veh, TMA16 / RFU, RWDD3 / Fold change vs veh, RWDD3 / RFU, BCAT1 / Fold change vs veh, BCAT1 / RFU, EDEM3 / Fold change vs veh, EDEM3 / RFU, TMEM33 / Fold change vs veh, TMEM33 / RFU, WDR75 / Fold change vs veh, WDR75 / RFU, AHCTF1 / Fold change vs veh, AHCTF1 / RFU, TFRC / Fold change vs veh, TFRC / RFU, ZDHHC17 / Fold change vs veh, ZDHHC17 / RFU, NOM1 / Fold change vs veh, NOM1 / RFU, ARL8B / Fold change vs veh, ARL8B / RFU, ZBTB11 / Fold change vs veh, ZBTB11 / RFU, TAMM41 / Fold change vs veh, TAMM41 / RFU, KIAA1704 /// LOC100996395 / Fold change vs veh, KIAA1704 /// LOC100996395 / RFU, ING1 / Fold change vs veh, ING1 / RFU, TRMT61B / Fold change vs veh, TRMT61B / RFU, FUBP3 / Fold change vs veh, FUBP3 / RFU, TP53 / Fold change vs veh, TP53 / RFU, TNKS2 / Fold change vs veh, TNKS2 / RFU, ZFP14 / Fold change vs veh, ZFP14 / RFU, ACTR2 / Fold change vs veh, ACTR2 / RFU, PPP3R1 / Fold change vs veh, PPP3R1 / RFU, PIK3R1 / Fold change vs veh, PIK3R1 / RFU, HNRNPA1 / Fold change vs veh, HNRNPA1 / RFU, RNF170 / Fold change vs veh, RNF170 / RFU, ZNF28 / Fold change vs veh, ZNF28 / RFU, RNGTT / Fold change vs veh, RNGTT / RFU, OGT / Fold change vs veh, OGT / RFU, BRD1 / Fold change vs veh, BRD1 / RFU, MARS / Fold change vs veh, MARS / RFU, ZNF655 / Fold change vs veh, ZNF655 / RFU, FAHD1 / Fold change vs veh, FAHD1 / RFU, BDP1 / Fold change vs veh, BDP1 / RFU, LRRCC1 / Fold change vs veh, LRRCC1 / RFU, ARID1A / Fold change vs veh, ARID1A / RFU, ZNF146 / Fold change vs veh, ZNF146 / RFU, ZNF330 / Fold change vs veh, ZNF330 / RFU, GPN3 / Fold change vs veh, GPN3 / RFU, C9orf123 / Fold change vs veh, C9orf123 / RFU, N4BP2L2 / Fold change vs veh, N4BP2L2 / RFU, ARFIP1 / Fold change vs veh, ARFIP1 / RFU, FAM179B / Fold change vs veh, FAM179B / RFU, BCL10 / Fold change vs veh, BCL10 / RFU, UHRF1BP1L / Fold change vs veh, UHRF1BP1L / RFU, BET1 / Fold change vs veh, BET1 / RFU, CNOT2 / Fold change vs veh, CNOT2 / RFU, ZNF268 / Fold change vs veh, ZNF268 / Fold change vs veh, ZNF507 / RFU, DGCR2 / Fold change vs veh, DGCR2 / RFU, WDSUB1 / Fold change vs veh, WDSUB1 / Fold change vs veh, HSP90B1 /// MIR3652 / RFU, ADSS / Fold change vs veh, ADSS / RFU, GK / Fold change vs veh, GK / RFU, ZNF148 / Fold change vs veh, ZNF148 / RFU, TAF9 / Fold change vs veh, TAF9 / RFU, SLC1A5 / Fold change vs veh, SLC1A5 / RFU, SLMO2 / Fold change vs veh, SLMO2 / RFU, ABCC4 / Fold change vs veh, ABCC4 / RFU, LOC101060439 /// RAP1B / Fold change vs veh, LOC101060439 /// RAP1B / RFU, RFX7 / Fold change vs veh, RFX7 / RFU, GTPBP10 / Fold change vs veh, GTPBP10 / RFU, CNEP1R1 / Fold change vs veh, CNEP1R1 / RFU, BIVM-ERCC5 /// ERCC5 / Fold change vs veh, BIVM-ERCC5 /// ERCC5 / RFU, ILF3 / Fold change vs veh, ILF3 / RFU 11762660_at / Fold change /veh 11762660_at / RFU VCAN (11757783_s_at) / Fold change /veh VCAN (11757783_s_at) / RFU DDX43 (11728927_at) / Fold change /veh DDX43 (11728927_at) / RFU KRT8 (11758188_x_at) / Fold change /veh KRT8 (11758188_x_at) / RFU NKD1 (11759106_at) / Fold change /veh NKD1 (11759106_at) / RFU SRD5A1 (11742802_a_at) / Fold change /veh SRD5A1 (11742802_a_at) / RFU TPSAB1 /// TPSB2 (11721975_s_at) / Fold change /veh TPSAB1 /// TPSB2 (11721975_s_at) / RFU GSTM3 (11746129_a_at) / Fold change /veh GSTM3 (11746129_a_at) / RFU IL23R (11737362_x_at) / Fold change /veh IL23R (11737362_x_at) / RFU TMEM51 (11727254_a_at) / Fold change /veh TMEM51 (11727254_a_at) / RFU PIWIL2 (11732686_x_at) / Fold change /veh PIWIL2 (11732686_x_at) / RFU ORM1 (11744905_x_at) / Fold change /veh ORM1 (11744905_x_at) / RFU CCDC152 (11743942_at) / Fold change /veh CCDC152 (11743942_at) / RFU ECM1 (11717891_a_at) / Fold change /veh ECM1 (11717891_a_at) / RFU IL23R (11748794_a_at) / Fold change /veh IL23R (11748794_a_at) / RFU TNFAIP8L3 (11732012_x_at) / Fold change /veh TNFAIP8L3 (11732012_x_at) / RFU MBOAT4 (11741988_at) / Fold change /veh MBOAT4 (11741988_at) / RFU 11764193_at / Fold change /veh 11764193_at / RFU TMEM53 (11763286_at) / Fold change /veh TMEM53 (11763286_at) / RFU MAGEB2 (11727129_at) / Fold change /veh MAGEB2 (11727129_at) / RFU TMEM200A (11744735_a_at) / Fold change /veh TMEM200A (11744735_a_at) / RFU CCDC152 (11751479_a_at) / Fold change /veh CCDC152 (11751479_a_at) / RFU FAM211A (11726209_a_at) / Fold change /veh FAM211A (11726209_a_at) / RFU RGS16 (11746705_a_at) / Fold change /veh RGS16 (11746705_a_at) / RFU VCAN (11755009_s_at) / Fold change /veh VCAN (11755009_s_at) / RFU RHOB (11743442_s_at) / Fold change /veh RHOB (11743442_s_at) / RFU RGS16 (11720943_a_at) / Fold change /veh RGS16 (11720943_a_at) / RFU RGS16 (11720944_at) / Fold change /veh RGS16 (11720944_at) / RFU, VPS4B / Fold change vs veh, VPS4B / RFU, CREB1 / Fold change vs veh, CREB1 / RFU, DNAJC13 / Fold change vs veh, DNAJC13 / RFU, GNAQ / Fold change vs veh, GNAQ / RFU, CDK5R1 / Fold change vs veh, CDK5R1 / RFU, ZRANB3 / Fold change vs veh, ZRANB3 / RFU, CUL4A / Fold change vs veh, CUL4A / RFU, CCNY / Fold change vs veh, CCNY / RFU, UFL1 / Fold change vs veh, UFL1 / RFU, COG3 / Fold change vs veh, COG3 / RFU, DIAPH2 / Fold change vs veh, DIAPH2 / RFU, SKA2 / Fold change vs veh, SKA2 / RFU, AFF3 / Fold change vs veh, AFF3 / RFU, LMF1 / Fold change vs veh, LMF1 / RFU, IPO11 / Fold change vs veh, IPO11 / RFU, DFFB / Fold change vs veh, DFFB / RFU, FOXP1 / Fold change vs veh, FOXP1 / RFU, CARD8 / Fold change vs veh, CARD8 / RFU, STRN3 / Fold change vs veh, STRN3 / RFU, ADK / Fold change vs veh, ADK / RFU, RASSF2 / Fold change vs veh, RASSF2 / RFU, WIPF1 / Fold change vs veh, WIPF1 / RFU, LARP1B / Fold change vs veh, LARP1B / RFU, RASA1 / Fold change vs veh, RASA1 / RFU, RB1 / Fold change vs veh, RB1 / RFU, PPFIA1 / Fold change vs veh, PPFIA1 / RFU, MAT2A / Fold change vs veh, MAT2A / RFU, CCT5 / Fold change vs veh, CCT5 / RFU, WDR92 / Fold change vs veh, WDR92 / RFU, CUX1 / Fold change vs veh, CUX1 / RFU, TTC7A / Fold change vs veh, TTC7A / RFU, TMEM135 / Fold change vs veh, TMEM135 / RFU, DEPTOR / Fold change vs veh, DEPTOR / RFU, CPM / Fold change vs veh, CPM / RFU, DNAJB6 / Fold change vs veh, DNAJB6 / RFU, CACNA2D3 / Fold change vs veh, CACNA2D3 / RFU, DTX4 / Fold change vs veh, DTX4 / RFU, TFCP2 / Fold change vs veh, TFCP2 / RFU, GMCL1 /// GMCL1P1 / Fold change vs veh, GMCL1 /// GMCL1P1 / RFU, AEBP2 / Fold change vs veh, AEBP2 / RFU, SNHG1 /// SNORD22 /// SNORD25 /// SNORD26 /// SNORD27 /// SNORD28 /// SNORD29 /// SNORD31 / Fold change vs veh, SNHG1 /// SNORD22 /// SNORD25 /// SNORD26 /// SNORD27 /// SNORD28 /// SNORD29 /// SNORD31 / Fold change (Aza/veh), C12orf56 (ProbeSet 11735607_a_at) / Fold change (ACY-1035/veh), C12orf56 (ProbeSet 11735607_a_at) / Fold change (Aza/veh), FGFR1OP (ProbeSet 11751329_s_at) / Fold change (ACY-1035/veh), FGFR1OP (ProbeSet 11751329_s_at) / Fold change (Aza/veh), VPS36 (ProbeSet 11739960_a_at) / Fold change (ACY-1035/veh), VPS36 (ProbeSet 11739960_a_at) / RFU SYPL1 (11715823_x_at) / Fold change /veh SYPL1 (11715823_x_at) / RFU IGFBP7 (11715501_s_at) / Fold change /veh IGFBP7 (11715501_s_at) / RFU REEP3 (11722064_at) / Fold change /veh REEP3 (11722064_at) / RFU IGLL1 (11728026_x_at) / Fold change /veh IGLL1 (11728026_x_at): dose or concentration left out as unconfirmed
Settings: MV-4-11 cells, 48 hours

Question: How did the “RFU PLEKHG5 (11743358_a_at)” value turn out when Nc1ncn([C@@H]2O[C@H](CO)[C@@H](O)[C@H]2O)c(=O)n1 [azacitidine] was run?
Answer: Its value is 38.46 RFU.
